Laboratory results as given in the OligoGym collection.
“And” between values parts separate entries of the source, which are not always exact repeats. Identical values can stand only once. After the bases stand the sugars from the 5' end (letter, count) and the backbone: PS all phosphorothioate, else s phosphorothioate and o phosphodiester by linkage. Methylation of C is not given here. e = 2'-O-(2-methoxyethyl) (MOE); k = constrained ethyl (cEt); d = 2'-deoxy (DNA)

Tests used:
DGAT2 = conditions: ASO
APOL1 = conditions: ASO

## AGGCATATACAAAAGTCTGA (sugars e5 d10 e5, PS)
DGAT2; HepG2, 0.12 µM
  target mRNA inhibition: 38%

## AGGCATGGAGCTCAGAGACT (sugars e3 d14 e3, PS)
DGAT2; HepG2, 0.12 µM
  target mRNA inhibition: 66%

## AGGCCAAGGACAGAGGTTCA (sugars e5 d10 e5, PS)
DGAT2; HepG2, 2.5 µM
  target mRNA inhibition: 60% and 51%
DGAT2; HepG2, 10 µM
  target mRNA inhibition: 81% and 87%

## AGGGAGGCCTTGCACTTACC (sugars e5 d10 e5, PS)
DGAT2; HepG2, 0.12 µM
  target mRNA inhibition: 13%

## AGGTTGTGTGTCTTCACCAG (sugars e3 d14 e3, PS)
DGAT2; HepG2, 0.12 µM
  target mRNA inhibition: 61%

## AGTTTCGGACCCACTGTGAC (sugars e5 d10 e5, PS)
DGAT2; HepG2, 0.12 µM
  target mRNA inhibition: 63%

## ATAATTTCTTTTAAATAACC (sugars e5 d10 e5, PS)
DGAT2; HepG2, 0.12 µM
  target mRNA inhibition: 0%

## ATCCAGTGCCCCATCTCCCA (sugars e5 d10 e5, PS)
DGAT2; HepG2, 0.12 µM
  target mRNA inhibition: 16%

## ATCCGGACTGAATGTCACCT (sugars e5 d10 e5, PS)
DGAT2; HepG2, 2.5 µM
  target mRNA inhibition: 80% and 72%
DGAT2; HepG2, 10 µM
  target mRNA inhibition: 84% and 91%

## ATGAGGGTCTTCATGGCTGA (sugars e5 d10 e5, PS)
DGAT2; HepG2, 0.12 µM
  target mRNA inhibition: 7%

## ATGGAGCTCAGAGACTCAGC (sugars e2 d13 e5, PS)
DGAT2; HepG2, 0.12 µM
  target mRNA inhibition: 73%

## ATGTATTTCTGGAACTTCTT (sugars e5 d10 e5, PS)
DGAT2; HepG2, 0.12 µM
  target mRNA inhibition: 45%

## ATTAGCAGTAGCTCAGGAGA (sugars e5 d10 e5, PS)
DGAT2; HepG2, 0.12 µM
  target mRNA inhibition: 48%

## ATTGCCACTCCCATTCTTTG (sugars e2 d13 e5, PS)
DGAT2; HepG2, 0.12 µM
  target mRNA inhibition: 53%

## ATTGCCACTCCCATTCTTTG (sugars e3 d14 e3, PS)
DGAT2; HepG2, 0.12 µM
  target mRNA inhibition: 40%

## ATTTCTTATCTTCAATCCTC (sugars e5 d10 e5, PS)
DGAT2; HepG2, 2.5 µM
  target mRNA inhibition: 57%
DGAT2; HepG2, 10 µM
  target mRNA inhibition: 95%

## CAAAAACATGACAGCCAGGG (sugars e5 d10 e5, PS)
DGAT2; HepG2, 2.5 µM
  target mRNA inhibition: 85% and 75%
DGAT2; HepG2, 10 µM
  target mRNA inhibition: 96% and 90%

## CAATGCCAATGCCTAGGTCA (sugars e5 d10 e5, PS)
DGAT2; HepG2, 2.5 µM
  target mRNA inhibition: 70%
DGAT2; HepG2, 10 µM
  target mRNA inhibition: 90%

## CAATGGGAATGGTATCGCAC (sugars e5 d10 e5, PS)
DGAT2; HepG2, 2.5 µM
  target mRNA inhibition: 68% and 62%
DGAT2; HepG2, 10 µM
  target mRNA inhibition: 93% and 85%

## CACCATTTTCACAAGGAGAA (sugars e5 d10 e5, PS)
DGAT2; HepG2, 2.5 µM
  target mRNA inhibition: 86%
DGAT2; HepG2, 10 µM
  target mRNA inhibition: 82%

## CACTGGAGCACTGAGATGAC (sugars e5 d10 e5, PS)
DGAT2; HepG2, 0.12 µM
  target mRNA inhibition: 27% and 48%

## CAGAATGAGACAGGCAGCCC (sugars e5 d10 e5, PS)
DGAT2; HepG2, 2.5 µM
  target mRNA inhibition: 37%
DGAT2; HepG2, 10 µM
  target mRNA inhibition: 82%

## CAGAGTTATCCTCAATTCAC (sugars e5 d10 e5, PS)
DGAT2; HepG2, 0.12 µM
  target mRNA inhibition: 34%

## TTATATTTGATCCTCA (sugars kkddddkekekkdddd, PS)
APOL1; A431, 2 µM
  target mRNA inhibition: 69%

## TTATGAAATTATTGGT (sugars k3 d4 k3 e1 d5, PS)
APOL1; A431, 2 µM
  target mRNA inhibition: 85%

## TTATGAAATTATTGGT (sugars kkddddkdkdkddddd, PS)
APOL1; A431, 2 µM
  target mRNA inhibition: 47%

## TTATTCTCATGGTACA (sugars k2 d4 e3 k2 d5, PS)
APOL1; A431, 2 µM
  target mRNA inhibition: 48%

## TTATTCTCATGGTACA (sugars kkddddekekeddddd, PS)
APOL1; A431, 2 µM
  target mRNA inhibition: 51%

## TTCAGAATTTCCACTA (sugars kddddkekekeddddd, PS)
APOL1; A431, 2 µM
  target mRNA inhibition: 62%

## TTCTATTAGAGGGCTA (sugars k4 d9 k3, PS)
APOL1; A431, 0.04 µM
  target mRNA inhibition: 68%
APOL1; A431, 0.0625 µM
  target mRNA inhibition: 51% and 40%
APOL1; A431, 0.25 µM
  target mRNA inhibition: 81% and 72%
APOL1; A431, 1 µM
  target mRNA inhibition: 92% and 84% and 98%

## TTCTATTAGAGGGCTA (sugars kkddddekekeddddd, PS)
APOL1; A431, 2 µM
  target mRNA inhibition: 85%

## TTCTATTAGAGGGCTA (sugars kkddddkekekddddd, PS)
APOL1; A431, 2 µM
  target mRNA inhibition: 53%

## TTCTCATGGTACAGGA (sugars kkddddkekekddddd, PS)
APOL1; A431, 2 µM
  target mRNA inhibition: 76%

## TTTAAACTCAGGTGAC (sugars kdddddkekekddddd, PS)
APOL1; A431, 2 µM
  target mRNA inhibition: 45%

## TTTAGAAAGGACACGG (sugars k4 d9 k3, PS)
APOL1; A431, 0.0625 µM
  target mRNA inhibition: 42%
APOL1; A431, 0.25 µM
  target mRNA inhibition: 73%
APOL1; A431, 1 µM
  target mRNA inhibition: 90%

## TTTATACCAGTGTCTT (sugars kkddddkdkdkddddd, PS)
APOL1; A431, 2 µM
  target mRNA inhibition: 81%

## TTTATACCAGTGTCTT (sugars kkddddkekekddddd, PS)
APOL1; A431, 2 µM
  target mRNA inhibition: 89%

## TTTATACCAGTGTCTT (sugars kkddddkekekkdddd, PS)
APOL1; A431, 2 µM
  target mRNA inhibition: 51%

## TTTGGGTCAAAAGCGA (sugars k4 d9 k3, PS)
APOL1; A431, 0.25 µM
  target mRNA inhibition: 66% and 85%
APOL1; A431, 1 µM
  target mRNA inhibition: 83% and 93%

## TTTGTAAGTGCAACCA (sugars k2 d4 e3 k2 d5, PS)
APOL1; A431, 0.0156 µM
  target mRNA inhibition: 23%
APOL1; A431, 0.0625 µM
  target mRNA inhibition: 60%
APOL1; A431, 0.25 µM
  target mRNA inhibition: 87%
APOL1; A431, 1 µM
  target mRNA inhibition: 98%
APOL1; A431, 2 µM
  target mRNA inhibition: 99%

## TTTTGTAAGTGCAACC (sugars k3 d4 k3 e1 d5, PS)
APOL1; A431, 0.0156 µM
  target mRNA inhibition: 38%
APOL1; A431, 0.04 µM
  target mRNA inhibition: 38% and 24%
APOL1; A431, 0.0625 µM
  target mRNA inhibition: 71%
APOL1; A431, 0.25 µM
  target mRNA inhibition: 93%
APOL1; A431, 1 µM
  target mRNA inhibition: 97% and 98% and 94%
APOL1; A431, 2 µM
  target mRNA inhibition: 98%

## TTTTGTAAGTGCAACC (sugars kkkddddkekeddddd, PS)
APOL1; A431, 0.0156 µM
  target mRNA inhibition: 21%
APOL1; A431, 0.0625 µM
  target mRNA inhibition: 67%
APOL1; A431, 0.25 µM
  target mRNA inhibition: 89%
APOL1; A431, 1 µM
  target mRNA inhibition: 97%
APOL1; A431, 2 µM
  target mRNA inhibition: 98%
